Read-outs that look alike come from different tables or passages of the source.

One experiment addresses FGFR1 (Homo sapiens (Human), UniProt P11362). Put plainly: FGFR Enzymatic Assay (FGFR1). It is filed as biochemical. Particulars: enzyme 0.02 nM, ATP 210 μM.
A further experiment addresses FGFR2 (Homo sapiens (Human), UniProt P21802). The experiment can be described thus: FGFR Enzymatic Assay (FGFR2).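 Note: FRET read-out of peptide phosphorylation by the purified kinase, with enzyme-free blank and uninhibited enzyme as controls, potency from a variable-slope sigmoidal dose-response fit.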 It counts as biochemical.
Experiment [1] deals with T1, FGFR3 enzyme (Millipore) (Homo sapiens (Human), UniProt P22607). The experiment can be described thus: biochemical.
T1 sequence (P22607 23-806): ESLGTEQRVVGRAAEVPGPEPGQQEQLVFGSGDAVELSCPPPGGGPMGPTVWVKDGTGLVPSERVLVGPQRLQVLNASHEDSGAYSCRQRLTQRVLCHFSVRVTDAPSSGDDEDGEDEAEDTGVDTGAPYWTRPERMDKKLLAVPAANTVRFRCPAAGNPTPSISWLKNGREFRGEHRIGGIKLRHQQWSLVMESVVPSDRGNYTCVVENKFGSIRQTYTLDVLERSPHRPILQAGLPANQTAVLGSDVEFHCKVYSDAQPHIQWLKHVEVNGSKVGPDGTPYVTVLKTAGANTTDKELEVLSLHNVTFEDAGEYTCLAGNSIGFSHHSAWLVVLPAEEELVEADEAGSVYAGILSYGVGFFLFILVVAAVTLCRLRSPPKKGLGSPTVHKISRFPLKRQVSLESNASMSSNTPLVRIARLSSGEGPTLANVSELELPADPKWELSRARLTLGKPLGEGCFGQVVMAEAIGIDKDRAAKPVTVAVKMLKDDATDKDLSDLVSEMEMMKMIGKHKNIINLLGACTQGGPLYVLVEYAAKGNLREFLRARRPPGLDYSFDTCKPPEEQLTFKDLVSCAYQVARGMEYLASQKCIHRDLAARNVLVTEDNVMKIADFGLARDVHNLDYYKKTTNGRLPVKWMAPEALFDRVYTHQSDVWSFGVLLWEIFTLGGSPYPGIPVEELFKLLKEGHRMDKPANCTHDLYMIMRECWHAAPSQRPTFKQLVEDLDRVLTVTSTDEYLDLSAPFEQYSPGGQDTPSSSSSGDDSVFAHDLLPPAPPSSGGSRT
Description: (§1) The inhibitor potency of compounds was measured in an enzyme assay that measures peptide phosphorylation using FRET measurements to detect product formation. Inhibitors were serially diluted in DMSO and a volume of 0.5 μL was transferred to the wells of a 384-well plate. For FGFR3, a 10 μL volume of FGFR3 enzyme (Millipore) diluted in assay buffer (50 mM HEPES, 10 mM MgCl2, 1 mM EGTA, 0.01% Tween-20, 5 mM DTT, pH 7.5) was added to the plate and pre-incubated for 5-10 minutes. Appropriate controls (enzyme blank and enzyme with no inhibitor) were included on the plate. […] The plate was incubated at 25° C. for 1 hr. […] The plate was allowed to equilibrate for ˜1 hr before scanning the wells on a PheraStar plate reader.
(§2) GraphPad prism3 was used to analyze the data. The IC50 values were derived by fitting the data to the equation for a sigmoidal dose-response with a variable slope. Y=Bottom+(Top−Bottom)/(1+10^((Log IC50−X)*HillSlope)) where X is the logarithm of concentration and Y is the response.
Experiment [2] addresses T1, FGFR3 enzyme (Millipore). Particulars: read-out: FGFR3 IC50; ATP 140 μM; class symbols.
Description: as §1, §2
[3] abbreviates: enzyme 0.01 nM, ATP 100 μM, read-out: FGFR2 IC50.

Chain of FGFR1 (P11362 22-822): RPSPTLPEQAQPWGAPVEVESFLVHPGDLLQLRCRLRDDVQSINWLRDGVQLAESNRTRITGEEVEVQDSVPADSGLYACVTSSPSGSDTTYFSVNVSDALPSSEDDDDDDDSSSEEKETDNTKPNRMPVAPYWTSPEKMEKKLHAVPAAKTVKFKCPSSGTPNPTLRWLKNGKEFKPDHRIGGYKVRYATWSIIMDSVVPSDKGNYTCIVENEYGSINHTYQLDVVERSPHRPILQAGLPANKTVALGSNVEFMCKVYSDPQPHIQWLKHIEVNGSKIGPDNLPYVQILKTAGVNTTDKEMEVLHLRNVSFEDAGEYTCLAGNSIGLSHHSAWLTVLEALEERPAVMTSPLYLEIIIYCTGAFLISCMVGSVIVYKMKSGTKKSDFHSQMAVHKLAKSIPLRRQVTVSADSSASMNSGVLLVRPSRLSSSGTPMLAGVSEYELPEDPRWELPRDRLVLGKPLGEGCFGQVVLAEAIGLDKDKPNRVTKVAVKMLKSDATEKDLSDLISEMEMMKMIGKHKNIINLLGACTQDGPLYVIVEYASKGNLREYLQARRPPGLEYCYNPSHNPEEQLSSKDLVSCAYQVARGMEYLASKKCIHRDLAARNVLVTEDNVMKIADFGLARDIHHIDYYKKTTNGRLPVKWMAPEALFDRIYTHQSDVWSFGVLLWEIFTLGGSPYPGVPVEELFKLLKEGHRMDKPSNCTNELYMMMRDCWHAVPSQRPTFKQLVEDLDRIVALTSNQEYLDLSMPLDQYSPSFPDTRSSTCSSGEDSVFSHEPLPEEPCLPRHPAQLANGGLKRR
Chain of FGFR2 (P21802 22-821): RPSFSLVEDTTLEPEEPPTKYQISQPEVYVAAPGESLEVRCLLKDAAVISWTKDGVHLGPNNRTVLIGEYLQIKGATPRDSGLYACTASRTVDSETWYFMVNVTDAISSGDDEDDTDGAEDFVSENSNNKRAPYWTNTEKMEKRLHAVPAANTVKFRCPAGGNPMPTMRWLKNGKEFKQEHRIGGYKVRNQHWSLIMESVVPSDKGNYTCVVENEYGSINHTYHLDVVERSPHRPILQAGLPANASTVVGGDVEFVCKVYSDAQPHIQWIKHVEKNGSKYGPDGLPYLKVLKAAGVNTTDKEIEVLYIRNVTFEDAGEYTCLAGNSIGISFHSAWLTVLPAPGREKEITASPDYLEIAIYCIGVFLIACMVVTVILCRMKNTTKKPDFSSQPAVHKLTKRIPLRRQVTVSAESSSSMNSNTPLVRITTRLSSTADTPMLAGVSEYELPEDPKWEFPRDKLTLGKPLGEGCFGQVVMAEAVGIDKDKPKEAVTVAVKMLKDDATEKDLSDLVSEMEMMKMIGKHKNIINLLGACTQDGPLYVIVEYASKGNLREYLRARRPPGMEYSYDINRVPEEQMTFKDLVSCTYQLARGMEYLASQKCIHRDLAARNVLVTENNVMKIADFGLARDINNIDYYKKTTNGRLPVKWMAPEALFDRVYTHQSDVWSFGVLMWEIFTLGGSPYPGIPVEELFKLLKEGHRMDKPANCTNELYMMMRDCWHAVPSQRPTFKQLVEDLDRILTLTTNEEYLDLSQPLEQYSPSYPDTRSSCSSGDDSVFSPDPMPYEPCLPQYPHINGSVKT
Description for FGFR1: as §1, §2
Description for FGFR2: as §1, §2

The term IC50 denotes the concentration at which inhibition is half-maximal. As to `COc1cc(CCc2cnc3[nH]c(-c4cnn(C5CCN(C)CC5)c4)cc3n2)cc(OC)c1` [Example 37, 2-[2-(3,5-dimethoxyphenyl)ethyl]-6-[1-(1-methylpiperidin-4-yl)-1H-pyrazol-4-yl]-5H-pyrrolo[2,3-b]pyrazine], the IC50 against FGFR1 was less than 100 nM; at FGFR2 (setting [3]) it was less than 100 nM; on FGFR3 enzyme (Millipore) [1] it was 100 to 500 nM.

Consider `COc1cc(CCc2cnc3[nH]c(-c4ccc5cnn(C)c5c4)cc3n2)cc(OC)c1` [Example 63, 2-(3,5-Dimethoxyphenethyl)-6-(1-methyl-1H-indazol-6-yl)-5H-pyrrolo[2,3-b]pyrazine], for which the IC50 against FGFR1 was less than 100 nM; on FGFR2 (setting [3]) it was less than 100 nM; at FGFR3 enzyme (Millipore) [1], 100 to 500 nM.

Regarding `COc1cc(CCc2cnc3[nH]c(-c4cnn(CCO)c4)cc3n2)cc(OC)c1` [Example 38, 2-(4-{2-[2-(3,5-dimethoxyphenyl)ethyl]-5H-pyrrolo[2,3-b]pyrazin-6-yl}-1H-pyrazol-1-yl)ethanol], the IC50 on FGFR1 is less than 100 nM; at FGFR2 (setting [3]) it was less than 100 nM; at FGFR3 enzyme (Millipore) [1], 100 to 500 nM.

For `CNC(=O)c1ccc(-c2cc3nc(CCc4cc(OC)cc(OC)c4)cnc3[nH]2)cn1` [Example 17, 5-{2-[2-(3,5-dimethoxyphenyl)ethyl]-5H-pyrrolo[2,3-b]pyrazin-6-yl}-N-methylpyridine-2-carboxamide], the IC50 on FGFR1 is less than 100 nM; on FGFR2 (setting [3]), less than 100 nM; on FGFR3 enzyme (Millipore) [1], 100 to 500 nM.

As to `COc1cc(CCc2cnc3[nH]c(-c4ccc(NC(C)=O)cc4)cc3n2)cc(OC)c1` [Example 6, N-(4-{2-[2-(3,5-dimethoxyphenyl)ethyl]-5H-pyrrolo[2,3-b]pyrazin-6-yl}phenyl)acetamide], the IC50 at FGFR1 is less than 100 nM; at FGFR2 (setting [3]), less than 100 nM; against FGFR3 enzyme (Millipore) [1], 100 to 500 nM.

Consider `COc1cc(CCc2cnc3[nH]c(-c4cnn(CC(=O)N(C)C)c4)cc3n2)cc(OC)c1` [Example 43, 2-(4-{2-[2-(3,5-dimethoxyphenyl)ethyl]-5H-pyrrolo[2,3-b]pyrazin-6-yl}-1H-pyrazol-1-yl)-N,N-dimethylacetamide], for which the IC50 against FGFR1 was less than 100 nM; on FGFR2 (setting [3]), less than 100 nM; at FGFR3 enzyme (Millipore) [1] it was 100 to 500 nM.

Turning to `COc1cc(CCc2cnc3[nH]c(-c4cnc(N)nc4)cc3n2)cc(OC)c1` [Example 58, 5-(2-(3,5-Dimethoxyphenethyl)-5H-pyrrolo[2,3-b]pyrazin-6-yl)pyrimidin-2-amine], the concentration for half-maximal inhibition (IC50) against FGFR1 was less than 100 nM; at FGFR2 (setting [3]), less than 100 nM; on FGFR3 enzyme (Millipore) [1], 100 to 500 nM.

On to `COc1cc(CCc2cnc3[nH]c(-c4cn[nH]c4)cc3n2)cc(OC)c1` [Example 29, 2-[2-(3,5-dimethoxyphenyl)ethyl]-6-(1H-pyrazol-4-yl)-5H-pyrrolo[2,3-b]pyrazine], for which the IC50 at FGFR1 was less than 100 nM; on FGFR2 (setting [3]), less than 100 nM; on FGFR3 enzyme (Millipore) [1], 100 to 500 nM.

As for `COc1cc(CCc2cnc3[nH]c(-c4ccc(C(=O)N(C)C)cc4)cc3n2)cc(OC)c1` [Example 7, 4-{2-[2-(3,5-dimethoxyphenyl)ethyl]-5H-pyrrolo[2,3-b]pyrazin-6-yl}-N,N-dimethylbenzamide], the results for the half-maximal inhibitory concentration (IC50) against FGFR1, at FGFR2 (setting [3]) and against FGFR3 enzyme (Millipore) [1] were less than 100 nM, less than 100 nM and 100 to 500 nM, respectively.

For the molecule `COc1cc(CCc2cnc3[nH]c(-c4ccc(N5CCCC5=O)nc4)cc3n2)cc(OC)c1` [Example 68, 1-(5-(2-(3,5-Dimethoxyphenethyl)-5H-pyrrolo[2,3-b]pyrazin-6-yl)pyridin-2-yl)pyrrolidin-2-one], the IC50 against FGFR1 is less than 100 nM; on FGFR2 (setting [3]), less than 100 nM; against FGFR3 enzyme (Millipore) [1], 100 to 500 nM.

Regarding `COc1cc(CCc2cnc3[nH]c(-c4ccc(OC)nc4)cc3n2)cc(OC)c1` [Example 61, 2-(3,5-Dimethoxyphenethyl)-6-(6-methoxypyridin-3-yl)-5H-pyrrolo[2,3-b]pyrazine], the IC50 was less than 100 nM against FGFR1, less than 100 nM at FGFR2 (setting [3]) and 100 to 500 nM on FGFR3 enzyme (Millipore) [1].

Turning to `COc1cc(CCc2cnc3[nH]c(-c4ccnc(C(=O)N5CC(O)C5)c4)cc3n2)cc(OC)c1` [Example 75, (4-(2-(3,5-Dimethoxyphenethyl)-5H-pyrrolo[2,3-b]pyrazin-6-yl)pyridin-2-yl)(3-hydroxyazetidin-1-yl)methanone], the IC50 at FGFR1 is less than 100 nM; on FGFR2 (setting [3]), less than 100 nM; at FGFR3 enzyme (Millipore) [1], 100 to 500 nM.

Consider `COc1cc(CCc2cnc3[nH]c(-c4ccc5[nH]ncc5c4)cc3n2)cc(OC)c1` [Example 70, 2-(3,5-Dimethoxyphenethyl)-6-(1H-indazol-5-yl)-5H-pyrrolo[2,3-b]pyrazine], for which the half-maximal inhibitory concentration (IC50) at FGFR1 was less than 100 nM; on FGFR2 (setting [3]) it was less than 100 nM; against FGFR3 enzyme (Millipore) [1] it was 100 to 500 nM.

As to `COc1cc(CCc2cnc3[nH]c(-c4ccnc(N5CCN(C)CC5)c4)cc3n2)cc(OC)c1` [Example 55, 2-(3,5-Dimethoxyphenethyl)-6-(2-(4-methylpiperazin-1-yl)pyridin-4-yl)-5H-pyrrolo[2,3-b]pyrazine], the IC50 against FGFR1 was less than 100 nM; on FGFR2 (setting [3]), less than 100 nM; against FGFR3 enzyme (Millipore) [1] it was 100 to 500 nM.

With `COc1cc(CCc2cnc3[nH]c(-c4ccccc4C#N)cc3n2)cc(OC)c1` [Example 10, 2-{2-[2-(3,5-dimethoxyphenyl)ethyl]-5H-pyrrolo[2,3-b]pyrazin-6-yl}benzonitrile], the IC50 at FGFR1 is less than 100 nM; on FGFR2 (setting [3]) it was less than 100 nM; against FGFR3 enzyme (Millipore) [1], 500 to 2700 nM.

In the case of `COc1cc(CCc2cnc3[nH]c(-c4ccc(NC(C)=O)nc4)cc3n2)cc(OC)c1` [Example 67, N-(5-(2-(3,5-Dimethoxyphenethyl)-5H-pyrrolo[2,3-b]pyrazin-6-yl)pyridin-2-yl)acetamide], the IC50 was less than 100 nM at FGFR1, less than 100 nM at FGFR2 (setting [3]) and 100 to 500 nM at FGFR3 enzyme (Millipore) [1].

`COc1cc(CCc2cnc3[nH]c(-c4ccc(C(=O)N(C)C)nc4)cc3n2)cc(OC)c1` [Example 59, 5-(2-(3,5-Dimethoxyphenethyl)-5H-pyrrolo[2,3-b]pyrazin-6-yl)-N,N-dimethylpicolinamide]: the IC50 against FGFR1 was less than 100 nM; on FGFR2 (setting [3]), less than 100 nM; on FGFR3 enzyme (Millipore) [1], 100 to 500 nM.

Regarding `COc1cc(CCc2cnc3[nH]c(-c4cnn(CCN5CCN(C)CC5)c4)cc3n2)cc(OC)c1` [Example 42, 2-[2-(3,5-dimethoxyphenyl)ethyl]-6-{1-[2-(4-methylpiperazin-1-yl)ethyl]-1H-pyrazol-4-yl}-5H-pyrrolo[2,3-b]pyrazine], the IC50 at FGFR1 is less than 100 nM; at FGFR2 (setting [3]), less than 100 nM; against FGFR3 enzyme (Millipore) [1], 100 to 500 nM.

For `COc1cc(CCc2cnc3[nH]c(-c4c(F)cccc4F)cc3n2)cc(OC)c1` [Example 4, 6-(2,6-difluorophenyl)-2-(3,5-dimethoxyphenethyl)-5H-pyrrolo[2,3-b]pyrazine], the IC50 at FGFR1 is less than 100 nM; against FGFR2 it was 100 to 500 nM; at FGFR3 enzyme (Millipore) [1] it was 500 to 2700 nM.

Turning to `COc1cc(CCc2cnc3[nH]c(C4=CCN(C)CC4)cc3n2)cc(OC)c1` [Example 23, 2-[2-(3,5-dimethoxyphenyl)ethyl]-6-(1-methyl-1,2,3,6-tetrahydropyridin-4-yl)-5H-pyrrolo[2,3-b]pyrazine], the IC50 against FGFR1 was less than 100 nM; at FGFR2 (setting [3]) it was less than 100 nM; at FGFR3 enzyme (Millipore) [1], 100 to 500 nM.

On to `COc1cc(CCc2cnc3[nH]c(-c4ccc(F)c(C(=O)N(C)C)c4)cc3n2)cc(OC)c1` [Example 54, 5-(2-(3,5-Dimethoxyphenethyl)-5H-pyrrolo[2,3-b]pyrazin-6-yl)-2-fluoro-N,N-dimethylbenzamide], for which the results for the IC50 against FGFR1, on FGFR2 (setting [3]) and against FGFR3 enzyme (Millipore) [1] were less than 100 nM, less than 100 nM and 100 to 500 nM, respectively.

In the case of `COc1cc(CCc2cnc3[nH]c(-c4ccnc(C(=O)N(C)C)c4)cc3n2)cc(OC)c1` [Example 74, 4-(2-(3,5-Dimethoxyphenethyl)-5H-pyrrolo[2,3-b]pyrazin-6-yl)-N,N-dimethylpicolinamide], the concentration for half-maximal inhibition (IC50) is less than 100 nM against FGFR1, less than 100 nM on FGFR2 (setting [3]) and 100 to 500 nM on FGFR3 enzyme (Millipore) [1].

In the case of `COc1cc(CCc2cnc3[nH]c(-c4cncc(C(=O)N5CCOCC5)c4)cc3n2)cc(OC)c1` [Example 18, 2-[2-(3,5-dimethoxyphenyl)ethyl]-6-[5-(morpholin-4-ylcarbonyl)pyridin-3-yl]-5H-pyrrolo[2,3-b]pyrazine], the IC50 is less than 100 nM against FGFR1, less than 100 nM on FGFR2 (setting [3]) and 500 to 2700 nM against FGFR3 enzyme (Millipore) [1].

For `COc1cc(CCc2cnc3[nH]c(-c4cnn(C)c4)cc3n2)cc(OC)c1` [Example 30, 2-[2-(3,5-dimethoxyphenyl)ethyl]-6-(1-methyl-1H-pyrazol-4-yl)-5H-pyrrolo[2,3-b]pyrazine], the IC50 was less than 100 nM against FGFR1, less than 100 nM at FGFR2 (setting [3]) and 100 to 500 nM at FGFR3 enzyme (Millipore) [1].

As to `COc1cc(CCc2cnc3[nH]c(-c4ccc(C(F)(F)F)cc4)cc3n2)cc(OC)c1` [Example 8, 2-[2-(3,5-dimethoxyphenyl)ethyl]-6-[4-(trifluoromethyl)phenyl]-5H-pyrrolo[2,3-b]pyrazine], the results for the IC50 at FGFR1, at FGFR2 and against FGFR3 enzyme (Millipore) [1] were less than 100 nM, 100 to 500 nM and 100 to 500 nM, respectively.

Turning to `CNC(=O)c1c(-c2ccc(N3CCN(C)CC3)cc2)[nH]c2ncc(CCc3cc(OC)cc(OC)c3)nc12` [Example 50, 2-[2-(3,5-dimethoxyphenyl)ethyl]-N-methyl-6-[4-(4-methylpiperazin-1-yl)phenyl]-5H-pyrrolo[2,3-b]pyrazine-7-carboxamide], the IC50 was less than 100 nM against FGFR1, less than 100 nM on FGFR2 (setting [3]) and 500 to 2700 nM against FGFR3 enzyme (Millipore) [1].

As for `COc1cc(CCc2cnc3[nH]c(-c4ccc(N5CCN(C)CC5)cc4)cc3n2)c(Cl)c(OC)c1` [Example 48, 2-[2-(2-chloro-3,5-dimethoxyphenyl)ethyl]-6-[4-(4-methylpiperazin-1-yl)phenyl]-5H-pyrrolo[2,3-b]pyrazine], the IC50 against FGFR1, at FGFR2 (setting [3]) and on FGFR3 enzyme (Millipore) [2] was less than 100 nM throughout.

The values above are taken from US9745311B2, “Substituted pyrrolo[2,3-b]pyrazines as FGFR inhibitors” (Incyte Corporation, priority 2012, dated 2017).
